Consider 1 compound from patent publication US11213514B2, “Alpha-1-adrenergic receptor agonist therapy” (The Regents of the University of California, priority 2016, dated 2022).

This experiment relates to ERK. Kind of experiment: ERK activation in neonatal rat ventricular myocytes (pERK/ERK Western blot). To be noted: NRVMs, norepinephrine 1 μM in the presence of propranolol 1 μM. The format is cell-based. From the text:
FIGS. 4A-4F. […] The reaction was stopped immediately and lysates were blotted for total and phospho-ERK (pERK). FIG. 4A. Representative Western blot. FIG. 4B. […] FIG. 4C. Summary of pERK/ERK for experiments using 5 different NRVM isolations. The average pERK/ERK ratio for each experiment was derived from at least 2 individual wells and normalized to the pERK/ERK ratio for vehicle treated NRVMs. FIG. 4D and FIG. 4E. […] Heart lysates were blotted for pERK and ERK. Results were compared using one way ANOVA with Tukey post-test. FIG. 4F.
Dabuzalgron protects neonatal rat ventricular myocytes from cell death due to doxorubicin. […] (FIG. 4C).
Female Sprague-Dawley rats were from Charles River. NRVMs were isolated as previously described.7 Briefly, hearts from 1-2 day old rat pups were minced, digested serially in collagenase (Worthington)-containing solution, filtered, then pre-plated to exclude non-myocyotes. NRVMs were then plated on laminin-coated dishes in DMEM with 5% fetal bovine serum (Sigma F2442) for 24 hours. Experiments were carried out after 36-96 hours of serum starvation in the presence of insulin, transferrin, and BrdU. […]
All results are presented as mean±SEM. […] EC50 for ERK activation was calculated using sigmoidal dose-response analysis (Prism).

Structures are written as SMILES.

On to `NC[C@H](O)c1ccc(O)c(O)c1` [norepinephrine], for which the “increase of pERK/ERK ratio” value was “roughly 1.5 fold”.
